Read-outs that look alike come from different tables or passages of the source.
Assays:
[1] = biological target: GABAA receptor ([35S]-TBPS binding site, rat brain cortical membranes); test: Displacement of [35S]-TBPS binding, rat brain cortical membranes; conditions: 5 μM GABA, 2 nM [35S]-TBPS; ± standard error of the means
Description: Rat brain cortical membranes were prepared with minor modifications of the method previously reported. (Hawkinson, J. E., et al., Correlation of Neuroactive Steroid Modulation of [^35S]t-Butylbicyclophosophorothionate and [^3H]Flunitrazepam Binding and γ-Aminobutyric AcidA Receptor Function, Mol. Pharmacol., 1994, 46, 977-985). Briefly, frozen rat cerebral cortices (Pel-freez, Rogers, Ak.) were thawed and homogenized in 10 volumes of ice-cold 0.32 M sucrose using a glass/Teflon pestle. The homogenate was centrifuged at 1500×g for 10 min at 4° C. The resultant supernatant was centrifuged at 10,000×g for 30 min at 4° C. The pellet (P2) from this centrifugation was resuspended in 200 mM NaCl, 50 mM potassium phosphate buffer, pH 7.4, and centrifuged at 10,000×g for 20 min at 4° C. This washing procedure was done a total of three times, and then pellets were resuspended in buffer (˜4 mL/brain) using a glass/Teflon pestle. The membrane suspension was aliquoted, frozen in liquid nitrogen, and stored at −80° C. prior to use.
[^35S]-TBPS Binding assays were done according to the procedure described previously (Hawkinson, J. E., et al., Correlation of Neuroactive Steroid Modulation of [^35S]t-Butylbicyclophosophorothionate and [^3H]Flunitrazepam Binding and γ-Aminobutyric AcidA Receptor Function, Mol. Pharmacol., 1994, 46, 977-985) with modifications. Briefly, aliquots of membrane solution (0.5 mg/mL final protein concentration in assay) were incubated with 5 μM GABA, 2 nM [^35S]-TBPS (45-120 Ci/mmol), and 5 μL aliquots of steroid in DMSO solution (final assay concentrations ranged from 1 nM to 10 μM), and brought to a final volume of 1 mL with 200 mM NaCl, 50 mM potassium phosphate buffer, pH 7.4. […] Assay tubes were incubated for 2 hr at room temperature. A Brandel (Gaithersburg, Md.) cell harvester was used for filtration of the assay tubes through Whatman/GF/C glass filter paper. Filter paper was rinsed with 4 mL of ice-cold buffer three times. Radioactivity bound to the filters was read by liquid scintillation counter and data was fit using Sigma Plot version 3.0 to the Hill equation i. f=Rmax/{1+([conc]/IC50)^n}
Where Rmax is the maximal effect, [conc] is steroid concentration, IC50 is the half-maximal inhibitor concentration and n is the Hill coefficient. Each data point was determined in triplicate and 2-3 full concentration-response curves were generated for each steroid.

[2] = tested on: Xenopus laevis tadpoles; test: Tadpole loss of righting (LRR) and swimming (LSR) reflexes; type: in vivo; conditions: 3 h equilibration at room temperature; for EC50: read-out: LSR EC50 (loss of swimming response)
Description: Tadpole LRR was measured as described previously. (See, Wittmer, L. L., et al., Enantioselectivity of steroid-induced γ-aminobutyric acidA receptor modulation and anesthesia, Mol. Phar., 1996, 50:1581-1586). Briefly, groups of 10 early prelimb-bud stage Xenopus laevis tadpoles (Nasco, Fort Atkinson, Wis.) were placed in 100 mL of oxygenated Ringer's stock solution containing various concentrations of compound. Compounds were added from a 10 mM DMSO stock (final concentration of DMSO in test solutions ≦0.1%). After equilibrating at room temperature for 3 h, tadpoles were evaluated using the LRR and LSR behavioral endpoints. LRR was defined as failure of the tadpole to right itself within 5 sec after being flipped by a smooth glass rod. LSR was defined as failure of the tadpole to swim when touched by a smooth glass rod. In general, the tadpoles regained their righting and swimming reflexes when placed in fresh oxygenated Ringer's solution. Control beakers containing up to 0.6% DMSO produced no LRR or LSR in tadpoles.
Tadpole LRR and LSR concentration-response curves were fit using Sigma Plot version 3.0 to the Hill equation f=Rmax/{1+([conc]/EC50)^n}
where Rmax is the maximum effect, [conc] is the steroid concentration, EC50 is the half-maximal effective concentration, and n is the Hill coefficient.

[3] = biological target: T1, rat α1β2γ2 GABAA Receptor (Rattus norvegicus, UniProt P18508+P62813+P63138, INS375LLRMFSFK); test: Xenopus oocyte two-electrode voltage-clamp electrophysiology; type: cell-based; conditions: for Oocyte electrophysiology, ratio of currents in presence/absence of compound, 0.1 μM: 0.1 μM compound co-applied with 2 μM GABA; for Oocyte electrophysiology, ratio of currents in presence/absence of compound, 0.1 μM / Oocyte electrophysiology, ratio of currents in presence/absence of compound, 1 μM / Oocyte electrophysiology, ratio of currents in presence/absence of compound, 10 μM: −70 mV; for Oocyte electrophysiology, ratio of currents in presence/absence of compound, 1 μM: 1 μM compound co-applied with 2 μM GABA; for Oocyte electrophysiology, ratio of currents in presence/absence of compound, 10 μM: 10 μM compound co-applied with 2 μM GABA; for Gating (10 μM), ratio of compound only current/2 μM GABA current: direct current gated by 10 μM compound in the absence of GABA
T1 construct: from linearized pBluescript vectors containing receptor coding regions; expressed in transfected cells; host or cells: Xenopus laevis oocytes injected with in vitro transcribed capped mRNA
Description: Stage V-VI oocytes were harvested from sexually mature female Xenopus laevis (Xenopus One, Northland, Mich.) under 0.1% tricaine (3-aminobenzoic acid ethyl ester) anesthesia. Oocytes were defolliculated by shaking for 20 min at 37° C. in collagenase (2 mg/ml) dissolved in calcium-free solution containing (in mM): 96 NaCl, 2 KCl, 1 MgCl2, and 5 HEPES at pH 7.4. Capped mRNA, encoding rat GABAA receptor α1, β2 and γ2L subunits was transcribed in vitro using the mMESSAGE mMachine Kit (Ambion, Austin, Tex.) from linearized pBluescript vectors containing receptor coding regions. Subunit transcripts were injected in equal parts (20-40 ng total RNA) 8-24 hours following defolliculation. Oocytes were incubated up to 5 days at 18° C. in ND96 medium containing (in mM): 96 NaCl, 1 KCl, 1 MgCl2, 2 CaCl2 and 5 HEPES at pH 7.4, supplemented with pyruvate (5 mM), penicillin (100 U/ml), streptomycin (100 μg/ml) and gentamycin (50 μg/ml). The cDNAs for the rat GABAA-receptor subunits were originally provided by A. Tobin, University of California, Los Angels (α1), P. Malherbe, Hoffman-La Roche, Switzerland (β2), C. Fraser, National Institute on Alcohol Abuse and Alcoholism (γ2L).
Two-electrode voltage-clamp experiments were performed with a Warner OC725 amplifier 2-5 days following RNA injection. The extracellular recording solution was ND96 medium with no supplements. Intracellular recording pipettes were filled with 3 M KCl and had open tip resistances of ˜1 MΩ. Drugs were applied from a common tip via a gravity-driven multibarrel drug-delivery system. Steroids were simultaneously co-applied with GABA. Cells were clamped at −70 mV for all experiments, and peak current during 20 s drug applications was measured. Data acquisition and analysis were performed with pCLAMP software (Axon Instruments, California). Statistical differences were determined using a two-tailed Student's t-test.
The GABA concentration used for the control response was 2 μM. Each compound was evaluated on at least four different oocytes at the concentrations indicated, and the results reported are the ratio of the currents measured in the presence/absence of added compound. (G) represents direct current gated by 10 μM compound in the absence of GABA, and this current is reported as the ratio of compound only current/2 μM GABA current. Error limits are calculated as standard error of the means.

T1 sequence (P62813 28-455, stated change not applied): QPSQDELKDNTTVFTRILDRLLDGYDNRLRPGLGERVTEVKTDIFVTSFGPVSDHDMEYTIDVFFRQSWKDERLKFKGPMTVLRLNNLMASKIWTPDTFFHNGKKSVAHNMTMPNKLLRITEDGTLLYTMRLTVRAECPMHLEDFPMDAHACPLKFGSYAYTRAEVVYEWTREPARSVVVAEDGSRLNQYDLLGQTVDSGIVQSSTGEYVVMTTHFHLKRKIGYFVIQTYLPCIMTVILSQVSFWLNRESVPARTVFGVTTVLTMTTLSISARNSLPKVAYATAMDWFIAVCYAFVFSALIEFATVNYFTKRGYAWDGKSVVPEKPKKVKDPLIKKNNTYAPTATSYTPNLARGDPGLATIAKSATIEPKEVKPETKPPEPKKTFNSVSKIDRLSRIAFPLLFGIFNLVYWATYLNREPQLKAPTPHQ
T1 sequence (P63138 26-474, stated change not applied): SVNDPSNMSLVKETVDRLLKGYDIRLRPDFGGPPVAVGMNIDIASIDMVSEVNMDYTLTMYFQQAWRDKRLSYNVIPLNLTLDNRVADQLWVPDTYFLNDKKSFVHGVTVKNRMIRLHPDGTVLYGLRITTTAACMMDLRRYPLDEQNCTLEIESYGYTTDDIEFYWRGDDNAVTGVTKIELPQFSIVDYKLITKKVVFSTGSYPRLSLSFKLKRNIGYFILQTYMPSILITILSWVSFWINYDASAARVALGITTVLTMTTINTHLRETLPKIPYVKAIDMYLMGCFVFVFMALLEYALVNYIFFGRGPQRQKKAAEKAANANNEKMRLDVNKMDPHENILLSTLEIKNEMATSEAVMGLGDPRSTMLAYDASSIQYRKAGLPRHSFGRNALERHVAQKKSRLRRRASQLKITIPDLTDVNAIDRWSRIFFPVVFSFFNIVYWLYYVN
T1 sequence (P18508 with tags, fused parts or gaps INS375LLRMFSFK): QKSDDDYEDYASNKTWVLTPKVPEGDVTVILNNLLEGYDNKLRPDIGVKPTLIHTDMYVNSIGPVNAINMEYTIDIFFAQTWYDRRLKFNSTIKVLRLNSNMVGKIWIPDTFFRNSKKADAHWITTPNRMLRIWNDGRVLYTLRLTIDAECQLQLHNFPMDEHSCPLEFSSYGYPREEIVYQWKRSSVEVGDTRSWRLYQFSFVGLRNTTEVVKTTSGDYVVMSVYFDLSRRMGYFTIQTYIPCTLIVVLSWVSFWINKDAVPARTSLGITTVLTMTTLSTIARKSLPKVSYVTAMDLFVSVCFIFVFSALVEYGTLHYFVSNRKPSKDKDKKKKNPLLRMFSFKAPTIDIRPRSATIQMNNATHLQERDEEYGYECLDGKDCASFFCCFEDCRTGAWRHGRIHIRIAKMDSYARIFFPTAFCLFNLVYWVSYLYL

Row | SMILES | IC50 [1] [µM] | LRR ED50 (loss of righting response) [2] [µM] | EC50 ([2]; Xenopus laevis, 3 h) [µM] | melting point | Oocyte electrophysiology, ratio of currents in presence/absence of compound, 0.1 μM [3] | Oocyte electrophysiology, ratio of currents in presence/absence of compound, 1 μM [3] | Oocyte electrophysiology, ratio of currents in presence/absence of compound, 10 μM [3] | Gating (10 μM), ratio of compound only current/2 μM GABA current [3] | LSR EC50 (loss of swimming response) [2] | EC50 [2] [µM]
1 | C=C1CCC[C@]23CCC4C(CC[C@@H]5C[C@H](O)CC[C@]45C)C2CC[C@H]13 (stereo partly drawn) [Compound 52, (3α,5α)-20-Methylene-13,24-cyclo-18,21-dinorcholan-3-ol] | 0.213 ± 0.021 | 4.88 ± 1.12 | > 10 | 131 to 133 °C | 1.57 ± 0.16 | 3.47 ± 0.50 | 6.22 ± 0.92 | −0.02 ± 0.02 |  | 
2 | C[C@]12CC[C@@H](O)C[C@@H]1CCC1C3CC[C@@H]4[C@@]5(CCC[C@]34CCC12)CO5 (stereo partly drawn) [Compound 73, (3α,5α,20S)-20,21-Epoxy-13,24-cyclo-18-norcholan-3-ol] | 1.29 | 4.00 ± 1.08 |  | 186 to 192 °C (dec.) | 0.88 ± 0.05 | 2.54 ± 0.40 | 4.84 ± 1.05 | −0.02 ± 0.04 | None @ 10 | 
3 | CC12CCC(O)CC1CCC1C2CCC23CCC(=CC#N)C2CCC13 (stereo not drawn) [Compound 97, (3α,5α,20Z)-3-Hydroxy-18,21-cyclopregnan-20-ylideneacetonitrile] | 17.2 | >10 |  | 226 to 228 °C | 0.88 ± 0.07 | 0.87 ± 0.15 | 1.10 ± 0.08 | −0.02 ± 0.06 | None @ 10 | 
4 | CC12CCC(O)CC1CCC1C2CCC23C=CC(=O)C2CCC13 (stereo not drawn) [Compound 94, (3α,5α)-3-Hydroxy-18,21-cyclopregn-18(21)-en-20-one] | 0.745 ± 0.075 | 3.37 ± 0.16 | 9.52 | 139 to 141 °C | 0.96 ± 0.02 | 1.41 ± 0.09 | 2.78 ± 0.13 | −0.04 ± 0.02 |  | 
5 | CC12CCC(O)CC1CCC1C2CCC23C(=O)CCCC2CCC13 (stereo not drawn) [Compound 5a, (3α,5α)-3-Hydroxy-13,24-cyclo-18,21-dinorcholan-24-one] | 0.301 ± 0.02 | 0.32 ± 0.02 |  | 203 to 204 °C | 1.22 ± 0.23 | 3.05 ± 0.79 | 10.73 ± 1.87 | 0.39 ± 0.69 |  | 1.73 ± 0.03
6 | CC12CCC(O)CC1CCC1C2CCC23C(=O)C=CCC2CCC13 (stereo not drawn) [Compound 35b, (3α,5β)-3-Hydroxy-13,24-cyclo-18,21-dinorchol-22-en-24-one] | 0.105 ± 0.012 | 0.40 ± 0.13 |  | 222 to 223 °C | 1.36 ± 0.60 | 3.15 ± 1.19 | 21.38 ± 11.08 | 0.20 ± 0.19 |  | 1
7 | CC12CCC(O)CC1CCC1C2CCC23C(=O)CCCC2CCC13 (stereo not drawn) [Compound 5b, (3α,5β)-3-Hydroxy-13,24-cyclo-18,21-dinorcholan-24-one] | 0.329 ± 0.035 | 0.40 ± 0.12 | 0.89 | 177 to 178 °C | 1.26 ± 0.05 | 3.45 ± 0.29 | 10.42 ± 1.65 | 0.04 ± 0.02 |  | 
